# Earlier results in patent US10342235B2, “Formulations comprising phosphite” (Ceradis B.V., priority 2015, dated 2019).
# System: rodents
# Details: oral administration, dermal administration, inhalatory exposure
substance,measurement,value
potassium phosphite,Toxicity in rodents,low toxicity
